Laboratory results taken from PubChem BioAssay (NCI).
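These data come from cells grown in 96-well plates and exposed to compound for 48 hours at five concentrations. At the GI50, growth is halved. TGI: concentration producing complete growth inhibition.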

How the values were obtained:
Assay in all cases: DTP human tumour cell line panel, 48 h
786-0 renal = system: 786-0 renal
A498 renal = system: A498 renal
A549 NSCLC = system: A549 NSCLC
ACHN renal = system: ACHN renal
BT-549 breast = system: BT-549 breast
CAKI-1 renal = system: CAKI-1 renal
CCRF-CEM leukemia = system: CCRF-CEM leukemia
COLO 205 colon = system: COLO 205 colon
DU-145 prostate = system: DU-145 prostate
EKVX NSCLC = system: EKVX NSCLC
HCC-2998 colon = system: HCC-2998 colon
HCT-116 colon = system: HCT-116 colon
HCT-15 colon = system: HCT-15 colon
HL-60(TB) leukemia = system: HL-60(TB) leukemia
HOP-62 NSCLC = system: HOP-62 NSCLC
HOP-92 NSCLC = system: HOP-92 NSCLC
HS 578T breast = system: HS 578T breast
HT29 colon = system: HT29 colon
IGROV1 ovarian = system: IGROV1 ovarian
K-562 leukemia = system: K-562 leukemia
KM12 colon = system: KM12 colon
LOX IMVI melanoma = system: LOX IMVI melanoma
M14 melanoma = system: M14 melanoma
MALME-3M melanoma = system: MALME-3M melanoma
MCF7 breast = system: MCF7 breast
MDA-MB-231 breast = system: MDA-MB-231 breast
MDA-MB-435 = system: MDA-MB-435
MOLT-4 leukemia = system: MOLT-4 leukemia
NCI-H226 lung = system: NCI-H226 lung
NCI-H23 lung = system: NCI-H23 lung
NCI-H460 lung = system: NCI-H460 lung
NCI-H522 lung = system: NCI-H522 lung
NCI/ADR-RES ovarian = system: NCI/ADR-RES ovarian
OVCAR-3 ovarian = system: OVCAR-3 ovarian
OVCAR-4 ovarian = system: OVCAR-4 ovarian
OVCAR-5 ovarian = system: OVCAR-5 ovarian
OVCAR-8 ovarian = system: OVCAR-8 ovarian
PC-3 prostate = system: PC-3 prostate
RPMI-8226 leukemia = system: RPMI-8226 leukemia
RXF 393 renal = system: RXF 393 renal
SF-268 CNS = system: SF-268 CNS
SF-295 CNS = system: SF-295 CNS
SF-539 CNS = system: SF-539 CNS
SK-MEL-2 melanoma = system: SK-MEL-2 melanoma
SK-MEL-28 melanoma = system: SK-MEL-28 melanoma
SK-MEL-5 melanoma = system: SK-MEL-5 melanoma
SK-OV-3 ovarian = system: SK-OV-3 ovarian
SN12C renal = system: SN12C renal
SNB-19 CNS = system: SNB-19 CNS
SNB-75 CNS = system: SNB-75 CNS
SR leukemia = system: SR leukemia
SW-620 colon = system: SW-620 colon
T-47D breast = system: T-47D breast
TK-10 renal = system: TK-10 renal
U251 CNS = system: U251 CNS
UACC-257 melanoma = system: UACC-257 melanoma
UO-31 renal = system: UO-31 renal

## CCCCCCCCCCCCNC(=O)[C@H]1CSC(c2cc(Br)cs2)N1 (some centres undefined)
786-0 renal
  GI50: 2.51 µM
  TGI: 8.32 µM
A498 renal
  GI50: 7.38 µM
  TGI: 14.1 µM
A549 NSCLC
  GI50: 6.99 µM
  TGI: 14.1 µM
ACHN renal
  GI50: 2.01 µM
  TGI: 6.54 µM
BT-549 breast
  GI50: 0.894 µM
  TGI: 1.78 µM
CAKI-1 renal
  GI50: 0.971 µM
  TGI: 2.04 µM
CCRF-CEM leukemia
  GI50: 1.03 µM
  TGI: 2.51 µM
COLO 205 colon
  GI50: 8.16 µM
  TGI: 16 µM
DU-145 prostate
  GI50: 1.11 µM
  TGI: 2.5 µM
EKVX NSCLC
  GI50: 0.918 µM
  TGI: 1.77 µM
HCC-2998 colon
  GI50: 2.73 µM
  TGI: 9.41 µM
HCT-116 colon
  GI50: 0.909 µM
  TGI: 1.74 µM
HCT-15 colon
  GI50: 1.03 µM
  TGI: 2.38 µM
HL-60(TB) leukemia
  GI50: 1.01 µM
  TGI: 2.49 µM
HOP-62 NSCLC
  GI50: 0.822 µM
  TGI: 1.56 µM
HOP-92 NSCLC
  GI50: 4.61 µM
  TGI: 11.5 µM
HS 578T breast
  GI50: 1.09 µM
  TGI: 2.51 µM
HT29 colon
  GI50: 1.59 µM
  TGI: 5.76 µM
IGROV1 ovarian
  GI50: 1 µM
  TGI: 2.19 µM
K-562 leukemia
  GI50: 1.13 µM
  TGI: 2.46 µM
KM12 colon
  GI50: 1.05 µM
  TGI: 2.37 µM
LOX IMVI melanoma
  GI50: 0.797 µM
  TGI: 1.56 µM
M14 melanoma
  GI50: 0.858 µM
  TGI: 1.65 µM
MALME-3M melanoma
  GI50: 3.68 µM
  TGI: 10.2 µM
MCF7 breast
  GI50: 2.16 µM
  TGI: 8.82 µM
MDA-MB-231 breast
  GI50: 0.83 µM
  TGI: 1.61 µM
MDA-MB-435
  GI50: 0.665 µM
  TGI: 1.31 µM
MOLT-4 leukemia
  GI50: 0.774 µM
  TGI: 1.76 µM
NCI-H226 lung
  GI50: 0.895 µM
  TGI: 1.76 µM
NCI-H23 lung
  GI50: 1.53 µM
  TGI: 5.11 µM
NCI-H460 lung
  GI50: 0.991 µM
  TGI: 1.99 µM
NCI-H522 lung
  GI50: 1.37 µM
  TGI: 4.31 µM
NCI/ADR-RES ovarian
  GI50: 1.11 µM
  TGI: 2.47 µM
OVCAR-3 ovarian
  GI50: 1.15 µM
  TGI: 2.38 µM
OVCAR-4 ovarian
  GI50: 0.917 µM
  TGI: 1.95 µM
OVCAR-5 ovarian
  GI50: 1.94 µM
  TGI: 6.49 µM
OVCAR-8 ovarian
  GI50: 1.58 µM
  TGI: 4.67 µM
PC-3 prostate
  GI50: 0.981 µM
  TGI: 2.25 µM
RPMI-8226 leukemia
  GI50: 1.38 µM
  TGI: 3.61 µM
RXF 393 renal
  GI50: 1.18 µM
  TGI: 2.6 µM
SF-268 CNS
  GI50: 0.598 µM
  TGI: 1.42 µM
SF-295 CNS
  GI50: 1.42 µM
  TGI: 5.01 µM
SF-539 CNS
  GI50: 0.95 µM
  TGI: 1.87 µM
SK-MEL-2 melanoma
  GI50: 0.916 µM
  TGI: 1.77 µM
SK-MEL-28 melanoma
  GI50: 0.759 µM
  TGI: 1.49 µM
SK-MEL-5 melanoma
  GI50: 5.57 µM
  TGI: 11.8 µM
SK-OV-3 ovarian
  GI50: 1.06 µM
  TGI: 2.23 µM
SN12C renal
  GI50: 1.11 µM
  TGI: 2.56 µM
SNB-19 CNS
  GI50: 2.48 µM
  TGI: 8.49 µM
SNB-75 CNS
  GI50: 0.851 µM
  TGI: 1.56 µM
SR leukemia
  GI50: 0.967 µM
  TGI: 2.27 µM
SW-620 colon
  GI50: 1.4 µM
  TGI: 4.19 µM
T-47D breast
  GI50: 1.98 µM
  TGI: 8.66 µM
TK-10 renal
  GI50: 0.951 µM
  TGI: 1.82 µM
U251 CNS
  GI50: 1.05 µM
  TGI: 2.26 µM
UACC-257 melanoma
  GI50: 1.24 µM
  TGI: 3 µM
UO-31 renal
  GI50: 0.979 µM
  TGI: 2.42 µM
